# Experiments:
# Type in all cases: in vivo
# Reticulitermes speratus [1] = assay: Test Example 3: treated filter paper in Petri dish, termite mortality after 37 days
# Protocol: (§1) Mortality (%)=(Number of dead termite workers/15 termite workers)×100
# (§2) Further, by the Colby's formula, the theoretical value (%) of mortality can be calculated. In a case where the actual mortality (%) is higher than the theoretical value (%), it can be said that the composition of the present invention has a synergistic effect for controlling the house insect pest.
# (§3) A filter paper having a diameter of 80 mm was placed in a plastic Petri dish, and 1 ml of a pesticide solution having a predetermined concentration, was dropped thereon. After the treatment, the solvent was sufficiently evaporated, and then, 1 ml of distilled water was impregnated to the treated filter paper, whereupon 10 termite workers (Reticulitermes speratus) were released. The plastic Petri dish was placed in a container having wet cotton laid over the bottom, and the container was maintained at 25° C. for 37 days, whereupon the number of dead termites in the Petri dish was examined, and the mortality was calculated in the same manner as in Test Example 1.
# Coptotermes formosanus = assay: Test Example 17: dust placed in ant trail, termite mortality with time; details: 0.5% dust, 10 mg in ant trail
# Protocol: Soil was packed in a cylindrical connection section made of an acrylic resin connecting two cups made of acrylic resin (i.e. cups each having a hole with a diameter of 10 mm formed in the bottom and having hard plaster (Dental Stone) set at the bottom in a thickness of 10 mm), and 30 termite workers and 3 termite soldiers (Coptotermes formosanus) were released to let them form an ant trail. Then, at the center portion of the ant trail, 10 mg of a dust prepared by mixing in a mortar 0.5 part by weight of a sample compound and 99.5 parts by weight of cellulose powder, was placed. This test apparatus was put into a container having wet cotton laid over the bottom and kept at room temperature of 25° C., whereby the number of dead termites in the cup was examined as the time passed, and the mortality was calculated. Further, for the purpose of comparison, a similar test was carried out with respect to a dust containing 0.5% of fipronil (Terminal Dust, tradename, manufactured by Aventis Crop Science Shionogi K.K.).
# Reticulitermes speratus [2] = assay: Test Example 9: treated filter paper in acrylic cup, termite mortality 5 and 20 days later; details: 1000 ppm
# Protocol: A filter paper having a diameter of 80 mm was placed in a cylindrical cup made of acrylic resin having a diameter of 80 mm and a height of 60 mm (i.e. a cup having a hole with a diameter of 10 mm formed in the bottom and having hard plaster (Dental Stone) set at the bottom in a thickness of 10 mm), and 1 ml of a solution containing a sample compound in a predetermined concentration, was dropped thereon. Then, ten termite workers and one termite soldier (Reticulitermes speratus) were released thereon. The cup was placed in a container having wet cotton laid over the bottom, and the container was maintained at room temperature of 25° C., and 5 days later and 20 days later, the mortality of termites in the cup was examined.
# Priplaneta americana = assay: Test Example 12: mouse feed poison bait, mortality with time; details: bait 1%
# Protocol: 1 g of feeding stuff for mice was treated with 0.5 ml of an acetone solution containing 10 mg of a sample compound and put in a constant temperature chamber at 40° C. for 20 hours to sufficiently evaporate acetone, whereby a poison bait chemical containing 1% of the sample compound was prepared. Then, this poison bait chemical was put into a cup together with a wet cotton, and 10 […] (Priplaneta americana) were released and kept at 25° C. in a breeding room, whereby the mortality was examined as the time passed.
# Reticulitermes speratus [3] = assay: Test Example 4: treated filter paper in Petri dish, termite mortality after 25 days
# Protocol: as §1, §2
# as §3, with “25” for “37”
structure (smiles),measurement,setting,value
"CC(=NN=C(Cc1ccc(C(F)(F)F)cc1)c1ccc(F)cc1)N(C)C [Compound No. II-2, [4′-fluoro-2-(4-trifluoromethylphenyl)acetophenone]N′-[1-(dimethylamino)ethylidene]hydrazone]",Mortality,Reticulitermes speratus [1]; II-2 5 ppm alone,10%
same,Mortality,Reticulitermes speratus [1]; II-2 10 ppm alone,20%
same,Mortality,Coptotermes formosanus; 6 Days later,37%
same,Mortality,Coptotermes formosanus; 11 Days later,100%
same,Mortality,Coptotermes formosanus; 15 Days later,100%
same,Mortality,Reticulitermes speratus [2]; 5 Days later,100%
same,Mortality,Reticulitermes speratus [2]; 20 Days later,100%
same,Mortality,Priplaneta americana; 1 Day later,0%
same,Mortality,Priplaneta americana; 8 Days later,0%
same,Mortality,Priplaneta americana; 48 Days later,30%
same,Mortality,Reticulitermes speratus [3]; II-2 5 ppm alone,0%
same,Mortality,Reticulitermes speratus [3]; II-2 10 ppm alone,10%
